Measurements as given in the OPERA property sets (Mansouri et al. 2018).
Where a SMILES comes first, the peptide text is derived from it. [ ]: non-standard residue; d: D form. The star is where a group is joined. Orn = NCCC[CH](N)C(=O)O; Boc = CC(C)(C)OC(=O)*

Work on `c1ccc(SCc2ccc(CCCN3CCOCC3)cc2)cc1` yielded a logP of 3.62.
Molecule `CC(C)(C)NC(=O)C1CN(C(=O)OCc2ccccc2)CCN1CC(O)CC(Cc1ccccc1)C(=O)NC1c2ccccc2CC1O` (stereo not drawn) has a logP of 4.67.
For `Clc1cc(-c2c(Cl)c(Cl)c(Cl)c(Cl)c2Cl)c(Cl)c(Cl)c1Cl`, the logP was 9.14.
For `CC(=O)OC1C(=O)C2(C)C(O)CC3OCC3(OC(C)=O)C2C(OC(=O)c2ccccc2)C2(O)CC(OC(=O)C(O)Cc3ccccc3)C(C)=C1C2(C)C` (stereo not drawn), the logP was 2.9.
With `Nc1ncc(Cc2ccccc2Cl)c(N)n1` the logP was 2.24.
With `O=S1(=O)NC(C2CC=CC2)=Nc2ccccc21` the logP was 1.53.
With `COCC(Cn1ccnc1[N+](=O)[O-])OC(C)=O` (stereo not drawn) the logP was -0.04.
For `CC(OCc1cn(C)c(C=NO)n1)C(C)(C)C` (stereo not drawn), the logP was 2.53.
In the case of `Clc1cc(Cl)cc(-c2cccc(Cl)c2Cl)c1`, the logP is reported as 6.17.
`c1ccc([C@H]2CN3CCSC3=N2)cc1` gave a logP of 1.84.
Molecule `Cn1ccc(=O)cc1` has a logP of -1.22.
For `O=[N+]([O-])C=C1NCCN1c1ccc(Cl)nc1`, the logP was -0.23.
Molecule `COc1cc(S(C)=O)ccc1-c1nc2ccccc2[nH]1` (stereo not drawn) has a logP of 2.15.
With `CCCCCC(=O)OCCOCn1cnc2c(=O)[nH]c(N)nc21` the logP was 0.93.
Work on `NC(Cc1cccc2ccccc12)C(=O)O` (stereo not drawn) yielded a logP of -0.22.
`CCCCCCCOc1ccccc1NC(=O)OCCN1CCOCC1` showed a logP of 4.51.
Work on `CC(=O)c1ccc(O)c2ncccc12` yielded a logP of 1.8.
With `C#CCOc1c(Cl)cc(NC=NOCC=C)cc1Cl` the logP was 3.7.
For `CN(C)N=Nc1nccs1`, the logP was 1.27.
Work on `COc1ccc2cc(C(C)C(=O)OCC(=O)N(C)C)ccc2c1` (stereo not drawn) yielded a logP of 2.05.
In the case of `C(=C\c1ccccc1)/CN1CCN(C(c2ccccc2)c2ccccc2)CC1`, the logP is reported as 5.77.
For `CN1CCC(=C2c3ccccc3CCc3cccnc32)CC1`, the logP was 3.59.
For `COc1ccc2[nH]c3c(c2c1)CCNc1cc(Cl)ccc1-3`, the logP was 4.24.
Work on `NC(=O)C(=Cc1ccc([N+](=O)[O-])o1)c1ccco1` yielded a logP of 0.15.
In the case of `O=c1nc(N=CN2CCOCC2)ccn1C1CC(O)C(CO)O1` (stereo not drawn), the logP is reported as -1.54.
In the case of `COc1cc(Cc2cnc(N)nc2N)cc(Br)c1OC`, the logP is reported as 2.23.
In the case of `CCN(CC)CCSC(=NO)c1nc(C)no1`, the logP is reported as 0.71.
`O=NN(CCCl)C(=O)NC1CCCCC1C(=O)O` (stereo not drawn) showed a logP of 2.01.
Work on `O=C1C(Br)=C(N2CC2)C(=O)C(Br)=C1N1CC1` yielded a logP of 2.03.
In the case of `CC(=O)OCC(O)Cn1ccnc1[N+](=O)[O-]` (stereo not drawn), the logP is reported as -0.37.
`O=C(NC(CO)C(O)c1ccc(-c2ccccn2)cc1)C(F)(F)F` (stereo not drawn) showed a logP of 1.31.
For `C#CCOc1c(Cl)cc(NC=NOCC=CCl)cc1Cl`, the logP was 3.9.
`CCOC(=O)C(C)Oc1ccc(Oc2cnc3cc(F)ccc3n2)cc1` (stereo not drawn) gave a logP of 3.65.
With `CC(=O)NC(CC(C)C)C(=O)NC(CCCN)C(=O)NC(Cc1ccccc1)C(N)=O` (stereo not drawn) (Ac-Leu-[Orn]-Phe-NH2; configuration not given here) the logP was 0.53.
For `CN(C)Cc1ccc(-c2cccc(Nc3[nH]ccc3[N+](=O)[O-])c2)o1`, the logP was 3.1.
For `COC1=C(C)C(=O)c2c(c(COC(N)=O)c3n2CCC3OC(C)=O)C1=O` (stereo not drawn), the logP was 1.54.
Work on `Clc1cc(Cl)c(Cl)c(-c2cc(Cl)c(Cl)cc2Cl)c1` yielded a logP of 7.12.
For `CC(C)(C)N(NC(=O)c1cccc(F)c1)C(=O)c1ccccc1Cl`, the logP was 2.88.
Work on `CCCn1c(=O)c2[nH]c(-c3ccc(S(=O)(=O)NCCN(C)C)cc3)nc2n(CCC)c1=O` yielded a logP of 3.32.
Work on `CCC1CC2C3CCC4=CC(=O)CCC4C3CCC2(C)C1C(=O)CF` (stereo not drawn) yielded a logP of 4.66.
Work on `O=C(O)CCCCCNCCc1ccccc1` yielded a logP of -1.3.
In the case of `CCC(C)NC(=O)C(Br)=Cc1ccccc1` (stereo not drawn), the logP is reported as 2.66.
Work on `COCC(F)Cn1cnc([N+](=O)[O-])n1` (stereo not drawn) yielded a logP of -0.04.
With `CC1=C(c2ccccc2)CCN(C)C1` the logP was 3.18.
In the case of `O=C(c1c[nH]c2ccccc12)C(F)(F)F`, the logP is reported as 3.44.
For `Clc1ccc(-c2cc(Cl)c(Cl)cc2Cl)c(Cl)c1`, the logP was 7.21.
In the case of `O=C(O)c1ccc([N+](=O)[O-])c(O)c1`, the logP is reported as 1.98.
For `CC(C)CNC(=O)C1(O)C(C)CC2C3CCC4=CC(=O)C=CC4(C)C3(F)C(O)CC21C` (stereo not drawn), the logP was 3.01.
With `CCCc1ccc(OCC(C)O)c2c(=O)cc(C(=O)O)oc12` (stereo not drawn) the logP was 3.
`CCSc1nc(NC(C)C)nc(NC(C)C)n1` showed a logP of 3.81.
Work on `CCOC(=O)C(CC)C(CO)Cc1cncn1C` (stereo not drawn) yielded a logP of 0.73.
For `O=[N+]([O-])C=C1NCCN1Cc1ccc(Cl)cc1`, the logP was 0.99.
Work on `c1ccc(-c2nnn[nH]2)cc1` yielded a logP of 1.65.
With `C#CC1(OC(=O)C2=CN(C)C=CC2)CCC2C3CCC4=CC(=O)CCC4(C)C3CCC21C` (stereo not drawn) the logP was 4.49.
`COc1ccc(OCCO)cc1` showed a logP of 1.13.
`CC(=O)NC(CCCCN)C(=O)NC(Cc1ccccc1)C(N)=O` (stereo not drawn) showed a logP of 0.12.
`CC(C)(C)C(=O)OCCOCn1cnc2c(=O)[nH]c(N)nc21` gave a logP of 0.3.
`CCCCCc1ccc(OCC(OC(=O)n2ccnc2)C(C)(C)C)cc1` (stereo not drawn) showed a logP of 5.26.
In the case of `CCC(C)(C)c1ccc(C2CCCC(O)C2)c(O)c1` (stereo not drawn), the logP is reported as 4.32.
For `COc1ccc(C(=O)NP(=O)(N2CC2)N2CC2)cc1`, the logP was 1.08.
For `CCOc1ccc(OCc2ccccc2CCCN2CCC(O)CC2)cc1`, the logP was 3.42.
`Cc1ccc(C)c(NN=C(C#N)C#N)c1` gave a logP of 3.08.
For `c1ccc(Cn2cccc2)cc1`, the logP was 2.71.
`Clc1cccc(-c2c(Cl)cc(Cl)c(Cl)c2Cl)c1Cl` gave a logP of 7.25.
Work on `CC(=O)N[C@@H](Cc1c[nH]c2ccccc12)C(=O)N[C@@H](C)C(=O)N[C@@H](C)C(N)=O` (Ac-Trp-Ala-Ala-NH2) yielded a logP of -0.38.
Molecule `O=C1CC(Sc2ccncc2)N1` (stereo not drawn) has a logP of 0.61.
With `CC(O)COc1ccccc1` (stereo not drawn) the logP was 1.61.
With `CC12CCC(=O)C=C1CC(C#N)C1C2CCC2(C)C1CCC21CCC(=O)O1` (stereo not drawn) the logP was 1.67.
For `Cc1cn(C2CC(N=[N+]=[N-])C(COC(=O)CCCNC(=O)C34CC5CC(CC(C5)C3)C4)O2)c(=O)[nH]c1=O` (stereo not drawn), the logP was 2.47.
With `CC(CCC(N)=O)n1nnc2ccccc21` (stereo not drawn) the logP was 1.15.
With `Cc1nccc2c1[nH]c1ccccc12` the logP was 3.1.
`CCC(C)N1C(=O)C(=O)c2ccccc2C1=O` (stereo not drawn) gave a logP of 2.15.
In the case of `COc1cc(C)c2c(c1OC)-c1ccc(OC)c(=O)cc1C(NC(=O)c1ccc([N+](=O)[O-])cc1)CC2` (stereo not drawn), the logP is reported as 2.96.
For `CC(=O)OC1C(=O)C2(C)C(O)CC3OCC3(OC(C)=O)C2C(OC(=O)c2ccccc2)C2(O)CC(OC(=O)C(O)CNC(=O)c3ccccc3)C(C)=C1C2(C)C` (stereo not drawn), the logP was 1.75.
In the case of `COCCCNC(=S)C(F)(F)Cn1cnc([N+](=O)[O-])n1`, the logP is reported as 1.1.
With `CCN1C(=O)C(=O)c2cccc(OC)c2C1=O` the logP was 0.94.
Work on `CC(=O)OC1CC(OC2C(O)CC(OC3CCC4(C)C(CCC5C4CC(O)C4(C)C(C6=CC(=O)OC6)CCC54O)C3)OC2C)OC(C)C1OC1CC(O)C(O)C(C)O1` (stereo not drawn) yielded a logP of 2.
In the case of `CN(C)c1nc(=O)cc(-c2ccc([N+](=O)[O-])o2)s1`, the logP is reported as 0.55.
In the case of `C#CCOc1c(Cl)cc(NC=NOCc2ccccc2)cc1Cl`, the logP is reported as 4.2.
Molecule `Nc1c2ncn(C3OC(CO)CC3F)c2nc[n+]1[O-]` (stereo not drawn) has a logP of -1.38.
With `Clc1ccc(Cl)c(-c2ccc(Cl)c(Cl)c2Cl)c1` the logP was 6.85.
In the case of `Cc1cc(Cl)ccc1Cl`, the logP is reported as 3.97.
With `c1ccc(OCc2cccc(CN3CCCOC3)c2)cc1` the logP was 2.75.
Work on `NC1C2CCC1c1ccccc1C2` (stereo not drawn) yielded a logP of 1.63.
Molecule `COc1cccc(NC(=O)OCCN2CCOCC2)c1` has a logP of 2.19.
`COc1ccc2ccc(=O)oc2c1` gave a logP of 1.74.
`O=C(O)C(Cc1ccc(O)cc1)n1cccc1` (stereo not drawn) gave a logP of 1.56.
`CNN=Nc1ccc(C(N)=O)cc1` gave a logP of 0.47.
Work on `COc1cccc(OCc2ccccc2CCCN2CCC(O)CC2)c1` yielded a logP of 3.35.
`CC(C)(C)OC(=O)NC(Cc1ccccc1)C(=O)NC(Cc1ccc(O)cc1)C(=O)O` (stereo not drawn) (Boc-Phe-Tyr-OH; configuration not given here) showed a logP of 2.79.
Molecule `CCOc1cccc(NC(=O)OCCN2CCOCC2)c1` has a logP of 2.5.
For `Cc1ncc([N+](=O)[O-])n1CCSC(=S)N(C)C`, the logP was 1.28.
Molecule `CCCOC(=O)C(C(=O)OC)=C1SC=CS1` has a logP of 2.72.
For `CCN1C(=O)C(=O)c2c(OC)cc(OC)cc2C1=O`, the logP was 1.23.
Work on `CCN(CC)S(=O)(=O)N(CC)C1C=C2c3cccc4[nH]cc(c34)CC2N(C)C1` (stereo not drawn) yielded a logP of 3.09.
`CC(C)Oc1cccc(NC(=O)c2ccccc2C(F)(F)F)c1` gave a logP of 3.7.
Work on `c1ccc(OCc2cccc(CN3CCCC3)c2)cc1` yielded a logP of 3.75.
For `CC1CC2C3CCC4=CC(=O)C=CC4(C)C3(F)C(O)CC2(C)C1(O)C(=O)NCC#N` (stereo not drawn), the logP was 1.57.
With `O=Cc1ccc(O)c2ncccc12` the logP was 1.63.
In the case of `ClC(Cl)(Cl)c1nc(C(Cl)(Cl)Cl)nc(C(Cl)(Cl)Cl)n1`, the logP is reported as 3.75.
For `OC1CCN(CCCc2ccccc2COc2ccccc2)CC1`, the logP was 3.21.
In the case of `CCCCc1ccc(C(=O)OCCN(C)C)cc1`, the logP is reported as 4.06.
`Oc1ccc(I)c2cccnc12` showed a logP of 3.27.
With `CC(=O)OC1CC2(O)C3CCC4CC(OC5CC(O)C(OC6CC(O)C(OC7CC(O)C(O)C(C)O7)C(C)O6)C(C)O5)CCC4(C)C3CCC2(C)C1C1=CC(=O)OC1` (stereo not drawn) the logP was 2.16.
For `CCC(CC)C(=O)NS(=O)(=O)c1ccc(C(F)(F)F)cc1N`, the logP was 3.04.
With `O=C1C(=O)N(c2ccccc2)C(=O)c2ccccc21` the logP was 1.14.
`CCCCC(NC(Cc1ccccc1)C(=O)N1CCC(OCOC)CC1)C(=O)NC(CC1CCCCC1)C(O)CC(C(=O)NCCC[N+]1([O-])CCOCC1)C(C)C` (stereo not drawn) gave a logP of 3.6.
With `CNC(=O)OCc1c2c(n3c1C(OC(C)=O)CC3)C(=O)C(C)=C(OC)C2=O` (stereo not drawn) the logP was 2.39.
`CSCCNC(=O)C(F)(F)Cn1cnc([N+](=O)[O-])n1` gave a logP of 0.41.
For `CCC(C)C(=O)OC1CCC=C2C=CC(C)C(CCC(O)CC(O)CC(=O)O)C21` (stereo not drawn), the logP was 3.6.
In the case of `Cc1cccc(Cl)c1Cl`, the logP is reported as 3.96.
Work on `CCCN1CC(NS(=O)(=O)N(CC)CC)C=C2c3cc(O)ccc3CCC21` (stereo not drawn) yielded a logP of 2.63.
`CNC(=O)C=C(C)OP(=O)(OC)OC` showed a logP of -0.2.
`CC(C)(C)n1ccnc1C=NO` gave a logP of 0.85.
`CC(C)(C)c1ccc2c(c1)OCCOCCOCCOCCO2` showed a logP of 2.26.
Work on `O=[N+]([O-])c1nccn1COC(CO)C(O)CO` (stereo not drawn) yielded a logP of -1.47.
With `CC1CC2C3CCC4=CC(=O)C=CC4(C)C3(F)C(O)CC2(C)C1(O)C(=O)NC1CCCCC1` (stereo not drawn) the logP was 3.54.
Molecule `Cc1cc(Cl)cc(Cl)c1` has a logP of 3.99.
`CCN1C(=O)C(=O)c2c(C(N)=O)cccc2C1=O` showed a logP of -0.5.
In the case of `CC(=O)NC(CCCCN)C(=O)NC(Cc1ccccc1)C(=O)NC(CC(C)C)C(N)=O` (stereo not drawn) (Ac-Lys-Phe-Leu-NH2; configuration not given here), the logP is reported as 0.98.
For `CC(C)NC(=O)C1(O)C(C)CC2C3CCC4=CC(=O)C=CC4(C)C3(F)C(O)CC21C` (stereo not drawn), the logP was 2.43.
Work on `CNC(=NC#N)Nc1cccc(-c2csc(N=C(N)N)n2)c1` yielded a logP of 1.6.
With `CCCOc1ccc(NC(=O)OCCN2CCOCC2)cc1` the logP was 2.78.
